For 9 compounds, IC50 results are on record in patent US4539322A, “Dihydropyridine derivatives and their use in treating heart conditions and hypertension” (Pfizer Inc., priority 1982, dated 1985).

Counter-ions that a name gives are not always drawn.

The assay relates to rat aorta. Description: Inhibition of calcium-induced contraction of isolated rat aorta strips (reduction of response to added calcium chloride in K+-containing saline). The class given is cell-based. The following applies: 0.75 h; spirally cut rat aorta strips, 45 millimolar potassium, calcium 2 millimolar, test repeated with compound after 45 minutes; read-out: molar concentration of the compounds required to reduce the response by 50% (IC50). The method, then: The ability of the compounds to inhibit the movement of calcium into the cell is shown by their effectiveness in reducing the response of isolated heart tissue to an increase in calcium ion concentration in vitro. The test is performed by mounting spirally cut strips of rat aorta with one end fixed and the other attached to a force transducer. The tissue is immersed in a bath of physiological saline solution containing potassium ion s at a concentration of 45 millimolar and no calcium. Calcium chloride is added to the bath with a pipette to give a final calcium ion concentration of 2 millimolar. The change in tension caused by the resulting contraction of the tissue is noted. The bath is drained and replaced with fresh saline solution and, after 45 minutes, the test is repeated with the particular compound under test present in the saline solution. The concentration of compound required to reduce the response by 50% is recorded.
`CCOC(=O)C1=C(COCCN2CCN(S(N)(=O)=O)CC2)NC(C)=C(C(=O)OC)C1c1ccccc1Cl` (stereo not drawn) [Example 53, 4-(2-chlorophenyl)-3-ethoxycarbonyl-5-methoxycarbonyl-6-methyl-2-[2-(4-sulphamoylpiperazin-1-yl)ethoxymethyl]-1,4-dihydropyridine, hydrochloride hydrate]: the IC50 stood at 41.7 nM.
Consider `CCOC(=O)C1=C(COCCN2CCN(C(=O)[C@@H]3CCC(=O)N3)CC2)NC(C)=C(C(=O)OC)C1c1ccccc1Cl` (stereo partly drawn) [Example 54, 4-(2-chlorophenyl)-3-ethoxycarbonyl-5-methoxycarbonyl-6-methyl-2-[2-(4-[l-5-oxo-pyrrolidin-2-ylcarbonyl]-piperazin-1-yl)ethoxymethyl]-1,4-dihydropyridine, hydrochloride hydrate], for which the IC50 was determined as 3.02 nM.
The result for `CCOC(=O)C1=C(COCCN2CCNCC2)NC(C)=C(C(=O)OC)C1c1ccccc1Cl` (stereo not drawn) [Example 55, 4-(2-chlorophenyl)-3-ethoxycarbonyl-5-methoxycarbonyl-6-methyl-2-[2-(piperazin-1-yl)ethoxymethyl]-1,4-dihydropyridine] reads 155 nM; that for `CCOC(=O)C1=C(COCC(C)(C)N2CCNCC2)NC(C)=C(C(=O)OC)C1c1ccccc1Cl` (stereo not drawn) [Example 56], 340 nM; that for `CCOC(=O)C1=C(COCC(C)N2CCNCC2)NC(C)=C(C(=O)OC)C1c1ccccc1Cl` (stereo not drawn) [Example 57], 224 nM.
The same measure for `CCOC(=O)C1=C(COCCN2CCN(C(=N)NC(=O)NC(C)C)CC2)NC(C)=C(C(=O)OC)C1c1ccccc1Cl` (stereo not drawn) [Example 64]: 14 nM.
The same measure for `CCOC(=O)C1=C(COCCN2CCN(C(=N)NC(=O)OC)CC2)NC(C)=C(C(=O)OC)C1c1ccccc1Cl` (stereo not drawn) [Example 65]: 8.1 nM.
Regarding `CCOC(=O)C1=C(COCCN2CCN(C(=NC(C)=O)NC(C)=O)CC2)NC(C)=C(C(=O)OC)C1c1ccccc1Cl` (stereo not drawn) [Example 66], the IC50 stood at 42 nM.
The result for `CCOC(=O)C1=C(COCCN2CCN(C(=O)NC)CC2)NC(C)=C(C(=O)OC)C1c1cccc2ccccc12` (stereo not drawn) [Example 70B, 3-Ethoxycarbonyl-5-methoxycarbonyl-6-methyl-2-{2-[4-(N-methylcarbamoyl)piperazin-1-yl]ethoxymethyl}4-(1-naphthyl)-1,4-dihydropyridine hydrate] reads 89 nM.
